From ChEMBL document CHEMBL4477221, “Discovery and Structure-Based Optimization of 2-Ureidothiophene-3-carboxylic Acids as Dual Bacterial RNA Polymerase and Viral Reverse Transcriptase Inhibitors” (J Med Chem, 2016)
Converted amounts (≈) assume the structure as drawn. The source made the active and inactive calls. The rule behind the calls is not given here.

Experiments:
[1] = Cytotoxicity against HEK293 cells; format: cell-based; conditions: human, read-out: LD50 (the source's name)
[2] = molecular target: Human immunodeficiency virus type 1 reverse transcriptase (Human immunodeficiency virus 1, UniProt Q72547); test: Inhibition of HIV1 reverse transcriptase using T19-Cy5 labeled 23-mer DNA/T2-TAMRA labeled 63-mer DNA as primer/template assessed as inhibition of dNTP incorporation into primer/template
[3] = Inhibition of Escherichia coli RNA polymerase
[4] = molecular target: Human immunodeficiency virus type 1 reverse transcriptase (Human immunodeficiency virus 1) (UniProt Q72547); test: Effect on binding orientation of HIV1 Alexa 488-labeled reverse transcriptase to TAMRA-labeled primer/template duplex by FRET assay
[5] = Cytotoxicity against human HeLa cells infected with HIV1 pseudoparticle expressing Gag, Gag-pol, RRE, and vesicular stomatitis virus-G protein assessed as inhibition of cell viability at 25 uM preincubated with cells for 30 mins followed by pseudoparticle addition measured 24 hrs post infection by MTT assay relative to control; format: cell-based; conditions: read-out: INH
Staphylococcus aureus = test: Antibacterial activity against Staphylococcus aureus; format: functional
[6] = test system: Human immunodeficiency virus 1; test: Antiviral activity against HIV1 pseudoparticle expressing Gag, Gag-pol, RRE, and vesicular stomatitis virus-G protein assessed as inhibition of pseudoparticles entry into human HeLa cells pretreated for 30 mins followed by pseudoparticle addition measured 24 hrs post infection by luciferase reporter gene assay; format: functional, organism-based
[7] = molecular target: Human immunodeficiency virus type 1 reverse transcriptase (Human immunodeficiency virus 1) (UniProt Q72547); test: Inhibition of TAMRA-labeled primer/template duplex binding to HIV1 Alexa 488-labeled reverse transcriptase by FRET assay
[8] = test system: Human immunodeficiency virus 1; test: Binding affinity to bodipy-labeled HIV1 reverse transcriptase p66 W24C/K287C double mutant assessed as induction of p66 thumb and finger domain open conformation at 3 uM by fluorescence spectroscopic analysis
[9] = test system: Human immunodeficiency virus 1; test: Antiviral activity against wild type HIV1 NL4-3 assessed as inhibition of viral infection in human TZM-bl cells after 48 hrs by luciferase reporter gene assay; format: functional, organism-based; conditions: Human immunodeficiency virus 1, NL4-3, TZM-bl
[10] = Ratio of IC50 for NNRTI resistant HIV1 harboring reverse transcriptase L100I/K103N/H221Y mutant infected in human TZM-bl cells to IC50 for wild type HIV1 NL4-3 infected in human TZM-bl cells; format: functional
[11] = Ratio of IC50 for NNRTI resistant HIV1 harboring reverse transcriptase A98G/K101E/Y181C/G190A mutant infected in human TZM-bl cells to IC50 for wild type HIV1 NL4-3 infected in human TZM-bl cells; format: functional
[12] = test system: Human immunodeficiency virus 1; test: Antiviral activity against NNRTI resistant HIV1 harboring reverse transcriptase V106I/Y181C/G190A/H221Y mutant assessed as inhibition of viral infection in human TZM-bl cells after 48 hrs by luciferase reporter gene assay; format: functional, organism-based; conditions: Human immunodeficiency virus 1, TZM-bl
[13] = Ratio of IC50 for NNRTI resistant HIV1 harboring reverse transcriptase K103N/V179F/Y181C mutant infected in human TZM-bl cells to IC50 for wild type HIV1 NL4-3 infected in human TZM-bl cells; format: functional
[14] = test system: Human immunodeficiency virus 1; test: Antiviral activity against wild type HIV1 NL4-3; format: functional, organism-based; conditions: Human immunodeficiency virus 1, NL4-3
[15] = molecular target: Human immunodeficiency virus type 1 reverse transcriptase (Human immunodeficiency virus 1) (UniProt Q72547); test: Inhibition of HIV1 reverse transcriptase using T19-Cy5 labeled 23-mer DNA/T2-TAMRA labeled 63-mer DNA as primer/template assessed as inhibition of dNTP incorporation into primer/template at 1 uM relative to control
[16] = test system: Human immunodeficiency virus 1; test: Binding affinity to bodipy-labeled HIV1 reverse transcriptase p66 W24C/K287C double mutant assessed as induction of p66 thumb and finger domain open conformation by measuring increase in bodipy fluorescence at 10 uM by stopped flow kinetic analysis
[17] = molecular target: Human immunodeficiency virus type 1 reverse transcriptase (Human immunodeficiency virus 1) (UniProt Q72547); test: Inhibition of HIV1 reverse transcriptase using T19-Cy5 labeled 23-mer DNA/T2-TAMRA labeled 63-mer DNA as primer/template assessed as inhibition of dNTP incorporation into primer/template at 25 uM relative to control
[18] = molecular target: Human immunodeficiency virus type 1 reverse transcriptase (Human immunodeficiency virus 1) (UniProt Q72547); test: Inhibition of HIV1 reverse transcriptase using T19-Cy5 labeled 23-mer DNA/T2-TAMRA labeled 63-mer DNA as primer/template assessed as inhibition of dNTP incorporation into primer/template at 10 uM relative to control
[19] = Human immunodeficiency virus 1, HeLa, read-out: IC50

Structure (SMILES): CCN(Cc1ccccc1)C(=O)Nc1sc(-c2ccc(Cl)c(Cl)c2)cc1C(=O)O
- CC50 [1]: 58 µM
- IC50 [2]: 900 nM
- IC50 [3]: 21 µM
- Activity [4]: inactive
- cytotoxicity at 24 h, 25 µM [5]: 23%
- MIC (Staphylococcus aureus): 10 µg/mL (≈ 22.3 µM)
- IC50 [6, 19]: 27 µM
- Activity [7]: inactive
- Activity [8]: inactive

Structure (SMILES): CS(=O)(=O)Nc1ccc(NC(=O)Nc2sc(-c3ccc(Cl)c(Cl)c3)cc2C(=O)O)cc1
- CC50 [1]: > 100 µM
- IC50 [2]: 100 nM
- IC50 [9]: 5 µM
- Ratio IC50 [10]: >4
- IC50 [3]: 26 µM
- Activity [4]: inactive
- Ratio IC50 [11]: 3.5
- cytotoxicity at 24 h, 25 µM [5]: 0%
- MIC (Staphylococcus aureus): 39 µg/mL (≈ 77.9 µM)
- IC50 [6, 19]: 30 µM
- Activity [7]: inactive
- Activity [8]: inactive
- IC50 [12]: 1.5 µM
- Ratio IC50 [13]: >4

Structure (SMILES): Cc1cc(/C=C/C#N)cc(C)c1Nc1ccnc(Nc2ccc(C#N)cc2)n1 [RILPIVIRINE]
- IC50 [14]: 0.9 nM
- Ratio IC50 [10]: 6.3
- Ratio IC50 [11]: 22
- IC50 [12]: 3.5 µM
- Ratio IC50 [13]: 2.3

Structure (SMILES): CCN(Cc1ccccc1)C(=O)Nc1scc(-c2ccc(Cl)c(Cl)c2)c1C(=O)O
- inhibition [15]: 12%
- IC50 [3]: 57 µM

Structure (SMILES): Cc1ccnc2c1NC(=O)c1cccnc1N2C1CC1 [NEVIRAPINE]
- IC50 [14]: 100 nM
- IC50 [3]: > 200 µM
- Activity [16]: Active
- IC50 [12]: > 200 µM

Structure (SMILES): CN(C)S(=O)(=O)Nc1ccc(NC(=O)Nc2sc(-c3ccc(Cl)c(Cl)c3)cc2C(=O)O)cc1
- CC50 [1]: > 100 µM
- IC50 [2]: 600 nM
- IC50 [3]: 23 µM
- Activity [4]: inactive
- MIC (Staphylococcus aureus): 13 µg/mL (≈ 24.6 µM)
- Activity [7]: inactive
- Activity [8]: inactive

Structure (SMILES): COC(=O)Nc1ccc(NC(=O)Nc2sc(-c3ccc(Cl)c(Cl)c3)cc2C(=O)O)cc1
- CC50 [1]: 86 µM
- IC50 [2]: 300 nM
- IC50 [3]: 19 µM
- Activity [4]: inactive
- cytotoxicity at 24 h, 25 µM [5]: 6%
- MIC (Staphylococcus aureus): 25 µg/mL (≈ 52 µM)
- IC50 [6, 19]: 30 µM
- Activity [7]: inactive
- Activity [8]: inactive

Structure (SMILES): O=C(Nc1ccccc1)Nc1sc(-c2ccc(Cl)c(Cl)c2)cc1C(=O)O
- CC50 [1]: 61 µM
- IC50 [2]: 1200 nM
- IC50 [9]: 5 µM
- Ratio IC50 [10]: >4
- IC50 [3]: 20 µM
- Activity [4]: inactive
- Ratio IC50 [11]: 3
- cytotoxicity at 24 h, 25 µM [5]: 0%
- MIC (Staphylococcus aureus): 6 µg/mL (≈ 14.7 µM)
- IC50 [6, 19]: 20 µM
- Activity [16]: inactive
- Activity [7]: inactive
- Activity [8]: inactive
- IC50 [12]: 1 µM
- Ratio IC50 [13]: >4

Structure (SMILES): O=C(Nc1ccc(F)cc1)Nc1sc(-c2ccc(Cl)c(Cl)c2)cc1C(=O)O
- CC50 [1]: 68 µM
- IC50 [2]: 700 nM
- IC50 [3]: 14 µM
- Activity [4]: inactive
- cytotoxicity at 24 h, 25 µM [5]: 0%
- MIC (Staphylococcus aureus): 4 µg/mL (≈ 9.41 µM)
- IC50 [6]: Not Active
- Activity [7]: inactive
- Activity [8]: inactive

Structure (SMILES): Nc1ccc(NC(=O)Nc2sc(-c3ccc(Cl)c(Cl)c3)cc2C(=O)O)cc1
- inhibition [17]: 64%
- IC50 [3]: 53 µM

Structure (SMILES): CCN(Cc1ccccc1)C(=O)Nc1cc(-c2ccc(Cl)c(Cl)c2)sc1C(=O)O
- inhibition [17]: 24%
- IC50 [3]: 22 µM

Structure (SMILES): CCN(Cc1ccccc1)C(=O)Nc1cc(-c2ccc(Cl)cc2)sc1C(=O)O
- inhibition [17]: 12%
- IC50 [3]: 75 µM

Structure (SMILES): CC(=O)Nc1ccc(NC(=O)Nc2sc(-c3ccc(Cl)c(Cl)c3)cc2C(=O)O)cc1
- IC50 [2]: 600 nM
- IC50 [3]: 27 µM
- Activity [4]: inactive
- Activity [7]: inactive
- Activity [8]: inactive

Structure (SMILES): CCN(Cc1ccccc1)C(=O)Nc1c(-c2ccc(Cl)cc2)csc1C(=O)O
- IC50 [3]: > 200 µM
- inhibition [18]: 13%

Structure (SMILES): O=C(NCc1ccccc1)Nc1sc(-c2ccc(Cl)c(Cl)c2)cc1C(=O)O
- inhibition [17]: 64%
- IC50 [3]: 43 µM

Structure (SMILES): O=C1Nc2ccc(Cl)cc2[C@@](C#CC2CC2)(C(F)(F)F)O1 [EFAVIRENZ]
- IC50 [12]: 26 µM

Structure (SMILES): CCN(Cc1ccccc1)C(=O)Nc1sc(-c2ccc(Cl)cc2)cc1C(=O)O
- inhibition [15]: 12%
- IC50 [3]: 54 µM

Structure (SMILES): O=C(Cn1cncn1)Nc1ccc(NC(=O)Nc2sc(-c3ccc(Cl)c(Cl)c3)cc2C(=O)O)cc1
- IC50 [2]: 800 nM
- IC50 [3]: 40 µM
- Activity [4]: inactive
- Activity [7]: inactive
- Activity [8]: inactive

Structure (SMILES): CCN(Cc1ccccc1)C(=O)Nc1scc(-c2ccc(Cl)cc2)c1C(=O)O
- inhibition [15]: 12%
- IC50 [3]: > 100 µM

Structure (SMILES): CCN(Cc1ccccc1)C(=O)Nc1c(-c2ccc(Cl)c(Cl)c2)csc1C(=O)O
- IC50 [3]: 100 µM
- inhibition [18]: 4%

Structure (SMILES): O=C(O)c1cc(-c2ccc(Cl)c(Cl)c2)sc1NC(=O)N(Cc1ccccc1)Cc1ccccc1
- inhibition [17]: 63%
- IC50 [3]: 7 µM

Structure (SMILES): O=C(Nc1ccc(NS(=O)(=O)c2ccccc2)cc1)Nc1sc(-c2ccc(Cl)c(Cl)c2)cc1C(=O)O
- CC50 [1]: 94 µM
- IC50 [2]: 900 nM
- IC50 [9]: 15 µM
- Ratio IC50 [10]: >1.5
- IC50 [3]: 8 µM
- Activity [4]: inactive
- Ratio IC50 [11]: 1
- MIC (Staphylococcus aureus): 3 µg/mL (≈ 5.33 µM)
- Activity [7]: inactive
- Activity [8]: inactive
- IC50 [12]: > 1.5 µM
- Ratio IC50 [13]: >1.5

Structure (SMILES): COc1ccc(NC(=O)Nc2sc(-c3ccc(Cl)c(Cl)c3)cc2C(=O)O)cc1
- CC50 [1]: 80 µM
- IC50 [2]: 800 nM
- IC50 [3]: 22 µM
- Activity [4]: inactive
- cytotoxicity at 24 h, 25 µM [5]: 12%
- MIC (Staphylococcus aureus): 8 µg/mL (≈ 18.3 µM)
- IC50 [6, 19]: 35 µM
- Activity [7]: inactive
- Activity [8]: inactive

Structure (SMILES): Cc1cc(C#N)cc(C)c1Oc1nc(Nc2ccc(C#N)cc2)nc(N)c1Br [ETRAVIRINE]
- IC50 [14]: 5 nM
- Ratio IC50 [10]: 6.8
- Ratio IC50 [11]: 15
- IC50 [12]: 6 µM
- Ratio IC50 [13]: 8.8

Structure (SMILES): Cc1cn([C@H]2C[C@H](N=[N+]=[N-])[C@@H](CO[P@](=O)(O)O[P@](=O)(O)OP(=O)(O)O)O2)c(=O)[nH]c1=O [ZIDOVUDINE TRIPHOSPHATE]
- IC50 [2]: 7000 nM
